Data reported in ChEMBL document CHEMBL1201862, “PubChem BioAssay data set” (2004).
The source made the active and inactive calls.

Key:
[1] = tested on: Escherichia coli; assay: microbe, parasite or virus in culture
[2] = tested on: HeLa; assay: HeLa cell cytotoxicity, dose response, cytotoxicity control for MITF activator project, CellTiter-Glo luminescence, cherry-pick samples (AID 540259); assay type: functional, cell-based; conditions: Homo sapiens
[3] = molecular target: Glucose-6-phosphate 1-dehydrogenase (Homo sapiens, UniProt P11413); assay: human G6PD enzyme inhibitors, dose response, selectivity assay for P. falciparum G6PD inhibitor project, biochemical, fluorescence (AID 504792); assay type: functional
[4] = molecular target: UDP-galactopyranose mutase (Mycobacterium tuberculosis, UniProt P9WIQ1); assay: Inhibitors of Mycobacterium tuberculosis UDP-galactopyranose mutase (UGM) enzyme Measured in Biochemical System Using Plate Reader - 2105-02_Inhibitor_Dose_CherryPick_Activity. [Related pubchem assays (depositor defined):AID504439]
[5] = molecular target: T1, Corticotropin-releasing factor receptor 2/Corticotropin-releasing factor-binding protein (Homo sapiens, UniProt P24387+Q13324); assay: activators of CRF receptor 2 with binding protein – uHTS hits, confirmation (AID 602473); assay type: functional; conditions: read-out: EC50_Mean
T1 sequence (Q13324 whole entry): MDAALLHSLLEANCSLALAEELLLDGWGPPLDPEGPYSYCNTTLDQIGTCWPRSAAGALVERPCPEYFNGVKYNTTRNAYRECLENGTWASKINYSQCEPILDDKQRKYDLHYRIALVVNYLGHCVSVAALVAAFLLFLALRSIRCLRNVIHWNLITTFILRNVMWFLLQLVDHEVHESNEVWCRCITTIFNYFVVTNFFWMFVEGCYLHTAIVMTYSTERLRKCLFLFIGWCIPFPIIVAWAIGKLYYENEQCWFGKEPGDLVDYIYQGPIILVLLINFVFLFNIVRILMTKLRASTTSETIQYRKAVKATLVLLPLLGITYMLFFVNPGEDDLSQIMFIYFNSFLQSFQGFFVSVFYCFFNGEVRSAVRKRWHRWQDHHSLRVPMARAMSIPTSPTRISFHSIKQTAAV
T1 sequence (P24387 whole entry): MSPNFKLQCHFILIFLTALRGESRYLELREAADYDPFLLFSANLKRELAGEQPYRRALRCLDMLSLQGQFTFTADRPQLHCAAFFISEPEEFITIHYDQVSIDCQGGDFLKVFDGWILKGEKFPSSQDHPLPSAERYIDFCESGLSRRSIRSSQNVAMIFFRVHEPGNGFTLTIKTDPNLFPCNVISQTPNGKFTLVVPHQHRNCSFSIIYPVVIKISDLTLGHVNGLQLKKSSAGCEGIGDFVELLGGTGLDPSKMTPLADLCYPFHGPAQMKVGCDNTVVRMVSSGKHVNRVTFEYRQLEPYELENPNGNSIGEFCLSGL

[6] = molecular target: Cytochrome P450 2D6 (Homo sapiens, UniProt P10635);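 further: CYP2D6 member of a cytochrome P450 panel assay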
[7] = molecular target: Cytochrome P450 2C9 (Homo sapiens, UniProt P11712)
[8] = molecular target: FAD-linked sulfhydryl oxidase ALR (Homo sapiens, UniProt P55789); assay: inhibitors of human ALR sulfhydryl oxidase, dose response, biochemical, H2O2 detection, luminescence, cherry-pick (AID 493248)
[9] = molecular target: T2, Leucine aminopeptidase (Plasmodium falciparum 3D7, UniProt Q8IL11); assay: P. falciparum M17LAP inhibitors, primary screen, biochemical, fluorogenic H-Leu-NHMec substrate, 1536-well (AID 1619); assay type: functional
T2 sequence (Q8IL11 whole entry): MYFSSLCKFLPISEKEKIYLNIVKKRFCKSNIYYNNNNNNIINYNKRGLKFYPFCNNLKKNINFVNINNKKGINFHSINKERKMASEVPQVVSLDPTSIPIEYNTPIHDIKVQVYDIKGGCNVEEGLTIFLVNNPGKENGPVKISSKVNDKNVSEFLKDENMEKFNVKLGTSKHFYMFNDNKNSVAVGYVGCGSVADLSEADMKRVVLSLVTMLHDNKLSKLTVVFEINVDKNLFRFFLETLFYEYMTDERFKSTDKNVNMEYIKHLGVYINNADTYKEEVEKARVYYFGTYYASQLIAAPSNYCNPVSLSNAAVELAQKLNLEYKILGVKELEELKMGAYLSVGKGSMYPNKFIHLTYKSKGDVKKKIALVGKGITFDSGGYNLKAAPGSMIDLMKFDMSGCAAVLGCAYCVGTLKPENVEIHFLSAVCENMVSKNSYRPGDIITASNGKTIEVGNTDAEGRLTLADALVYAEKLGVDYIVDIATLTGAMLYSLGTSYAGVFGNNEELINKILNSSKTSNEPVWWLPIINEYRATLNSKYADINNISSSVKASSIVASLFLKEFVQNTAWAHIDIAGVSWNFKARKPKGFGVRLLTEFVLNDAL

Glucose-6-phosphate 1-dehydrogenase, sequence (P11413 whole entry): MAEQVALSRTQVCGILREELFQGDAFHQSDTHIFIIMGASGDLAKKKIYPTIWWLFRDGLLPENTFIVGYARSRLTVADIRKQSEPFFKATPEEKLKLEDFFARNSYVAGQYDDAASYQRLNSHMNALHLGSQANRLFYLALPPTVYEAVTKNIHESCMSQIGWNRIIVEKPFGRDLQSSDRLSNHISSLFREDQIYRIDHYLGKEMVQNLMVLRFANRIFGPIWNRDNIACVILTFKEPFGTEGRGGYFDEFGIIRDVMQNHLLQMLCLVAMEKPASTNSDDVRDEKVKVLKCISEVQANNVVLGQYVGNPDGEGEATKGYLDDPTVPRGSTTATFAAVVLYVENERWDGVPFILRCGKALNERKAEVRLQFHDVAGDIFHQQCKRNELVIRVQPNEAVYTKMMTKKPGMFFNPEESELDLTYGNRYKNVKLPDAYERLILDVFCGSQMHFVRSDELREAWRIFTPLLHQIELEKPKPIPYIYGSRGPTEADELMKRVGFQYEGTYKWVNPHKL
UDP-galactopyranose mutase, sequence (P9WIQ1 whole entry): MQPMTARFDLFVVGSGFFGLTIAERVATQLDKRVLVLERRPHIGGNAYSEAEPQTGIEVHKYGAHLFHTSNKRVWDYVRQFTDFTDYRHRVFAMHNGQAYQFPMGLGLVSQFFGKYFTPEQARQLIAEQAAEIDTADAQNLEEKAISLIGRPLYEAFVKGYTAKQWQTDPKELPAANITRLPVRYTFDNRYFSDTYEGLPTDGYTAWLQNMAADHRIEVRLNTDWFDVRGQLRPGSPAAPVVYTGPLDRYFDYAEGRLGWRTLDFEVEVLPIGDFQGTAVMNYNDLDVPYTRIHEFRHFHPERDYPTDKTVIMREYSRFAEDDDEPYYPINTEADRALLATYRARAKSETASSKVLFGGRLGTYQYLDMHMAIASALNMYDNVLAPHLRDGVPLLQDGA
FAD-linked sulfhydryl oxidase ALR, sequence (P55789 whole entry): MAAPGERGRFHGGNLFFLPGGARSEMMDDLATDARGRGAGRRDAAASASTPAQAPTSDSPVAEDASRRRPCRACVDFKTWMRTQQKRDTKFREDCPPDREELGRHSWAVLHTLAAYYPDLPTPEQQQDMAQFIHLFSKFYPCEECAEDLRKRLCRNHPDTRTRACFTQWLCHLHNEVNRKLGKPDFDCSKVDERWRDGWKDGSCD
Cytochrome P450 2C9, sequence (P11712 whole entry): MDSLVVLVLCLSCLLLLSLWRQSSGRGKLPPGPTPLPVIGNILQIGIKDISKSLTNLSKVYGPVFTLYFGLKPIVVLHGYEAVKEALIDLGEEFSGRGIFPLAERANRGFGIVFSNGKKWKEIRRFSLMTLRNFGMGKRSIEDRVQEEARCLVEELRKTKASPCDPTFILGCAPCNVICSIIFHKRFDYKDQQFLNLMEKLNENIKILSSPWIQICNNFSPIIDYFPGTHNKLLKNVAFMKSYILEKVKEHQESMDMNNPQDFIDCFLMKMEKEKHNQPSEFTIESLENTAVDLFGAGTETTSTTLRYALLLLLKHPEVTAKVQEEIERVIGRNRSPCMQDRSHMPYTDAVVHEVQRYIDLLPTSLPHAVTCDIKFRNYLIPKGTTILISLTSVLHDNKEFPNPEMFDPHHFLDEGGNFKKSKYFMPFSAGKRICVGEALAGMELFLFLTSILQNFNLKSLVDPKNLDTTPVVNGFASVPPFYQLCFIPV
Cytochrome P450 2D6, sequence (P10635 whole entry): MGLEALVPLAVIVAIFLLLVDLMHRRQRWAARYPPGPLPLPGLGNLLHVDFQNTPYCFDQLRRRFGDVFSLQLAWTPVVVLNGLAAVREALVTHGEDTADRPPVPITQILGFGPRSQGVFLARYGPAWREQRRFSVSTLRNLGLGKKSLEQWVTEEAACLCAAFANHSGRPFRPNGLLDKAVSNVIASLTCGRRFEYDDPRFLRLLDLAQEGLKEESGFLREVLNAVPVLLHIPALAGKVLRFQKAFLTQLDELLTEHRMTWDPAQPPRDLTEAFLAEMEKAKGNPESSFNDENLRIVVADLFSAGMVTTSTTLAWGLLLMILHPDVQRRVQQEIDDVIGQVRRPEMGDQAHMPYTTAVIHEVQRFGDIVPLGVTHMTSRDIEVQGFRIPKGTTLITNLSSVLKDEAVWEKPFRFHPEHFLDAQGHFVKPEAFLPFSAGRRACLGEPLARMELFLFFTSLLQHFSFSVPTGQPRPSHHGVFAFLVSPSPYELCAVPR

COc1ccccc1NC(=S)NC(=O)C(C)C
AC50 [1]: 50.3 µM (active)

O=C(c1cnn2ccccc12)N1CCc2ccccc21
AC50 [2]: 58.6 µM (active)

COc1cc(-c2nnc3n2N=C(c2ccccc2)CS3)cc(OC)c1OC
IC50 [3]: > 80 µM (inactive)

N#C/C(=C\C=C\c1ccccc1)c1nc(-c2ccc3c(c2)OCO3)cs1
AC50 [4]: 38.5 µM (active)
EC50 [5]: 9.03 µM (active)

O=C(NCCc1ccc(O)cc1)c1ccc(Cl)cc1
AC50 [6]: 25.1 µM (inconclusive)
AC50 [7]: inconclusive
AC50 [8]: 6.24 µM (active)
AC50 [2]: 99 µM (active)

Cc1ccc(O)c(C(=O)c2coc(=N)c(C(=O)NC(C)C)c2)c1
AC50 [1]: 23.8 µM (active)
IC50 [9]: 4.66 µM (active)
